Values of other authors as cited in US20080107726A1, “COMPOSITIONS COMPRISING BETA-ADRENERGIC RECEPTOR ANTAGONISTS AND DIURETICS” (priority 2006, published 2008).
Structures can show the parent of a compound that is named as a salt. Where two headings read alike, the source gives them in different places.

Solubility (in dichloromethane and 2-propanol): slightly soluble
Solubility (in ethanol): sparingly soluble
Solubility (in ethyl acetate, acetone, diethylether and heptane): practically insoluble
Solubility (in methanol): soluble
Solubility (in water): freely soluble
SMILES: COCCc1ccc(OCC(O)CNC(C)C)cc1 (racemic) [Metoprolol succinate, (±)-1-(isopropylamino)-3-[p-(2-methoxyethyl)phenoxy]-2-propanol succinate (2:1) (salt)]
